In patent US6436999B1, “Diacyl-substituted guanidines, a process for their preparation, their use as medicine or diagnostic aid, and medicine containing them” (Hoechst Aktiengesellschaft, priority 1993, dated 2002):
Structures can show the parent of a compound that is named as a salt.

What was measured:
[1] = biological target: T1, Na^+/H^+ exchanger of rabbit erythrocytes (Oryctolagus cuniculus, UniProt P23791); experiment: Inhibition of the Na+/H+ exchanger of rabbit erythrocytes (amiloride-sensitive sodium influx, flame photometry); type: cell-based; conditions: hyperosmolar salt/sucrose medium, pH 7.4, 37° C., Na^+ influx by flame photometry
T1 construct: endogenous in cells; host or cells: erythrocytes in whole blood from cholesterol-fed New Zealand White rabbits
T1 sequence (P23791 whole entry): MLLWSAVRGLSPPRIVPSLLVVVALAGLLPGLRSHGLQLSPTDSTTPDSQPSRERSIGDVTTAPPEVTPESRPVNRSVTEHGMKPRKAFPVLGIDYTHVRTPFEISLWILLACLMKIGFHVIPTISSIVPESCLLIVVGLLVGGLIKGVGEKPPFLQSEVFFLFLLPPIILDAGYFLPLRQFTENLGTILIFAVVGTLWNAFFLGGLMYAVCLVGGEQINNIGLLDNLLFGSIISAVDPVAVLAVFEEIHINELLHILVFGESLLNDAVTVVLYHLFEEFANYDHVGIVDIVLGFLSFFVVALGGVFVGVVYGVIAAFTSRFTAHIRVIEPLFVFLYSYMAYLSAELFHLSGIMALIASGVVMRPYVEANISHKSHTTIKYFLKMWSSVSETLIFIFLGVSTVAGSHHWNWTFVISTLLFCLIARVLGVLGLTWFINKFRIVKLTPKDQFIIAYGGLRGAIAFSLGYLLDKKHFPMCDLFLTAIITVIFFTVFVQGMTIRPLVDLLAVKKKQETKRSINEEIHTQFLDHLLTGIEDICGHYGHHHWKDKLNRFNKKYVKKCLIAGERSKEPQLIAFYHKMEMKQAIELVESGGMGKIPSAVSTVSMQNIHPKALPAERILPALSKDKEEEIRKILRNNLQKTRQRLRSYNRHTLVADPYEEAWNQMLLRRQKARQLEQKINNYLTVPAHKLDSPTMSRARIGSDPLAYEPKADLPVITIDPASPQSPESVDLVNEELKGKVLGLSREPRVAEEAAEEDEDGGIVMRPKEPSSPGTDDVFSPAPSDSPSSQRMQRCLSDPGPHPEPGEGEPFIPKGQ
From the text: New Zealand White rabbits (Ivanovas) were given a standard diet containing 2% cholesterol for six weeks in order to activate Na^+/H^+ exchange and thus to be able to use flame photometry to determine the Na^+ influx into the erythrocytes via Na^+/H^+ exchange. The blood was removed from the aural arteries and rendered incoagulable by the addition of 25 IU of potassium heparin per ml. One part of each sample was used for the duplicate determination of the hematocrit by centrifugation. Aliquots of in each case 100 μl were employed for measuring the initial content of Na^+ in the erythrocytes.
In order to determine the amiloride-sensitive sodium influx, 100 μl of each blood sample were in each case incubated, at pH 7.4 and 37° C., in 5 ml of a hyperosmolar salt/sucrose medium (mmol/l: 140 NaCl, 3 KCl, 150 sucrose, 0.1 ouabain, 20 tris(hydroxymethyl)aminomethane). The erythrocytes were then washed three times with ice cold MgCl2/ouabain solution (mmol/l: 112 MgCl2, 0.1 ouabain) and hemolyzed in 2.0 ml of distilled water. The intracellular content of sodium was determined by flame photometry.
The nett influx of Na^+ was calculated from the difference between the initial sodium values and the sodium content of the erythrocytes following incubation. The amiloride-inhibitable sodium influx was given by the difference in the sodium content of the erythrocytes following incubation with and without 3×10^−4 mol/l amiloride. The same procedure was also used in the case of the compounds according invention.

SMILES	IC50 [1] [nM]	melting point
N=C(NC(=O)c1ccc(-n2ccnc2)c(C(F)(F)F)c1)NC(=O)c1ccc(-n2ccnc2)c(C(F)(F)F)c1 [Example 3, Bis[4-(l-imidazolyl)-3-trifluoromethylbenzoyl]guanidine]	5000	
N=C(NC(=O)C1CCc2ccccc2C1)NC(=O)C1CCc2ccccc2C1 (stereo not shown) [Example 5, N,N′-Bis(1,2,3,4-tetrahydronaphthalene-2-carbonyl)guanidide]	300	99 °C
Cl.N=C(NC(=O)c1ccc(F)c(C(F)(F)F)c1)NC(=O)c1ccc(-n2ccnc2)c(C(F)(F)F)c1 [Example 4, N-[4-(1-Imidazolyl)-3-trifluoromethylbenzoyl]-N′-(4-fluoro-3-trifluoromethylbenzoyl)guanidine Hydrochloride]	3000	217 to 218 °C (dec.)
CC(Cc1cc(F)ccc1F)C(=O)NC(=N)NC(=O)C(C)Cc1cc(F)ccc1F (stereo not shown) [Example 8, N,N′-Bis[3-(2,5-difluorophenyl)-2-methylpropionyl]guanidide]	300	
C/C(=C\c1ccccc1)C(=O)NC(=N)NC(=O)/C(C)=C/c1ccccc1 [Example 6, N,N′-Bis[(E)-2-methylcinnamoyl]guanidide]	1100	
CC(C)c1ccc(C(=O)NC(=N)NC(=O)c2ccc(C(C)C)c(S(C)(=O)=O)c2)cc1S(C)(=O)=O [Example 1, Bis(3-methylsulfonyl-4-i-propylbenzoyl)guanidine]	10000	218 to 221 °C

Continued, values first:

IC50 [1] [nM]	melting point	SMILES
	75 °C	N=C(NC(=O)CCc1ccccc1C(F)(F)F)NC(=O)CCc1ccccc1C(F)(F)F (as salt: hydrochloride) [Example 7, N,N′-Bis[3-(2-trifluoromethylphenyl)propionyl]guanidide]
2000		N=C(NC(=O)CCc1ccccc1C(F)(F)F)NC(=O)CCc1ccccc1C(F)(F)F [Example 7, N,N′-Bis[3-(2-trifluoromethylphenyl)propionyl]guanidide]
10000	143 to 145 °C	N=C(NC(=O)c1ccc(F)c(C(F)(F)F)c1)NC(=O)c1ccc(F)c(C(F)(F)F)c1 [Example 2, Bis(4-fluoro-3-trifluoromethylbenzoyl)guanidine]
